{"source": "patent US20020009527A1", "about": "“CONTAMINATION-RESISTANT ANIMAL FEEDSTUFFS” (BOBBY J BLAND, priority 1992, published 2002)", "key": {"Escherichia coli [1]": {"test_system": "Escherichia coli", "description": "Poultry starter mash (8000 g) was distributed in one gallon glass jars (2000 g/jar). The mash was autoclaved at 121° C. and 15 psi for one hour on two consecutive days. The sterile poultry starter mash was mixed thoroughly and subsampled using a Humboldt sample splitter to obtain seven 500 g subsamples. […] After treatment the samples were stored at 24° C. for 7 days prior to the recontamination.\nThe identity of an isolate of Escherichia coli obtained from poultry feed was confirmed by biochemical and serological tests. The isolate was used to inoculate milk dilution bottles containing 90 ml of nutrient both. The inoculated bottles were incubated at 35° C. for 18-24 hours. After incubation the contents of several milk dilution bottles were combined in a sterile 1000 ml Erlenmeyer flask, mixed and the level of Escherichia coli determined by serially diluting the nutrient broth with buffered phosphate. The dilutions were plated onto MacConkey's agar. The inoculated plates were incubated at 35° C. for 18-24 hours. After incubation, the number of E. coli colonies was counted.\nAfter seven days of storage, the subsamples (500 g) were individually inoculated with 20 ml of a nutrient broth culture of E. coli (10^6 colonies/ml). The inoculated feed was transferred to sterile one quart containers with screw cap lids. After 24 hours incubation at 25° C., the treatment samples were split to obtain log subsamples. Each subsample was placed into a milk dilution bottle containing 90 ml of buffered phosphate. The bottles were placed on a wrist action shaker and agitated for 30 minutes. The samples were serially diluted with buffered phosphate and the dilutions plated onto MacConkey's agar (MA) or Hektoen Enteric agar (HEA). The inoculated plates were incubated at 35° C. for 18-24 hours. After incubation, the number of E. coli colonies was counted. […] In this procedure a 25 g subsample was incubated in 225 ml lactose broth for 18-20 hours at 35° C. The inoculated broth was streaked on plates of MacConkey's agar and incubated for 24 hours at 35° C.\nThe procedure of Example 8 was repeated using an inoculum containing 10^4 colonies/ml of E. coli."}, "[2]": {"conditions": "1.0 pound formaldehyde (dry wt.) per ton of feed", "protocol": "Chickens (1,400,000 broilers) were raised with steam pelletized formaldehyde-treated feed and 250,000 broilers were raised with conventional steam pelletized feed. This test was conducted from the time the chicks were a day old until market weight which is 7 to 8 weeks."}, "Escherichia coli [3]": {"test_system": "Escherichia coli", "conditions": "fine mist (43 microns); all quantity levels", "protocol": "A sterilized poultry starter mash (500 grams/treatment quantity level) was treated with 37 wt. % formaldehyde solution in quantities of 0.66, 1.33 and 2.00 pounds dry weight of formaldehyde per ton. One set of samples was treated with a coarse spray (270 microns) at 1.8 gal/hr and another was treated with fine mist (43 microns) at 25.5 gal/hr. Each sample of 500 grams was challenged with 20 ml of a liquid inoculum of Escherichia coli (10^6 colonies/ml) one week after treatment."}, "Salmonella typhimurium": {"test_system": "Salmonella typhimurium", "conditions": "hydraulic nozzle; 1.32 lb/ton; inoculated after 7 days storage; 24 h incubation", "description": "Poultry starter mash was distributed in one gallon glass jars (2000 g/jar). The mash was autoclaved at 121° C. and 15 psi for one hour on two consecutive days. The sterile poultry starter mash was mixed thoroughly and subsampled using a Humboldt sample splitter to obtain seven 500 g subsamples. […] After treatment the samples were stored in paper bags at 24° C. prior to the recontamination.\nAn isolate of Salmonella typhimurium was obtained from poultry feed and was serotyped by the United States Department of Agriculture (USDA) National Veterinary Services Laboratory in Ames, Iowa. The isolate was used to inoculate milk dilution bottles containing 90 ml of nutrient broth. The inoculated bottles were incubated at 35° C. for 18-24 hours. After incubation, the contents of several milk dilution were combined in a sterile 1000 ml Erlenmeyer flask and mixed. The level of Salmonella typhimurium was determined by serially diluting the nutrient broth with buffered phosphate solution and the dilutions plated on modified lysine iron agar. The inoculated plates were incubated at 35° C. for 18-24 hours. After incubation, the number of Salmonella typhimurium colonies was counted.\nAfter 7 days of storage, the subsamples of poultry starter mash (500 g) were individually inoculated with 20 ml of the nutrient broth culture of S. typhimurium (10^3 colonies/gram). […]"}, "E. coli": {"test_system": "E. coli", "protocol": "The term “resistant to contamination by pathogenic bacteria” means that a challenge with 1000 colonies per gram of feed results in death of substantially all the bacteria within 48 to 72 hours. […] Sampling procedures for obtaining representative samples of feed are described in Example 16, so that the coefficient of variation can be readily determined."}}, "note": "Read-outs that look alike come from different tables or passages of the source.", "data": [{"smiles": "C=O", "note": "[Formaldehyde, formaldehyde]", "values": [{"measurement": "E. coli colonies/g", "setting": "Escherichia coli [1]; atomizing nozzle, 0.66 lb/ton, inoculum 10^6 colonies/ml (Example 8)", "result": "1.11 × 10^2 COLONIES/GRAM"}, {"measurement": "E. coli colonies/g", "setting": "Escherichia coli [1]; hydraulic nozzle, 0.66 lb/ton, inoculum 10^4 colonies/ml (Example 9)", "result": "8.78 × 10^3 COLONIES/GRAM"}, {"measurement": "E. coli colonies/g", "setting": "Escherichia coli [1]; hydraulic nozzle, 0.66 lb/ton, inoculum 10^6 colonies/ml (Example 8)", "result": "2.74 × 10^5 COLONIES/GRAM"}, {"measurement": "E. coli colonies/g", "setting": "Escherichia coli [1]; hydraulic nozzle, 1.32 lb/ton, inoculum 10^4 colonies/ml (Example 9)", "result": "4.33 × 10^3 COLONIES/GRAM"}, {"measurement": "E. coli colonies/g", "setting": "Escherichia coli [1]; hydraulic nozzle, 1.32 lb/ton, inoculum 10^6 colonies/ml (Example 8)", "result": "3.67 × 10^3 COLONIES/GRAM"}, {"measurement": "E. coli colonies/g", "setting": "Escherichia coli [1]; hydraulic nozzle, 2.00 lb/ton, inoculum 10^4 colonies/ml (Example 9)", "result": "3.33 × 10^2 COLONIES/GRAM"}, {"measurement": "E. coli colonies/g", "setting": "Escherichia coli [1]; hydraulic nozzle, 2.00 lb/ton, inoculum 10^6 colonies/ml (Example 8)", "result": "1.04 × 10^2 COLONIES/GRAM"}, {"measurement": "MORTALITY", "setting": "[2]; broilers, day old to market weight (7 to 8 weeks)", "result": 6, "unit": "%"}, {"measurement": "FEED CONVERSION", "setting": "[2]; pounds of feed required to produce one pound live weight gain", "result": 2.25}, {"measurement": "further time free of detectable E. coli (test then discontinued)", "setting": "Escherichia coli [3]", "result": 60, "unit": "days"}, {"measurement": "time after inoculation until free of detectable E. coli", "setting": "Escherichia coli [3]", "result": "≤ 48", "unit": "h"}, {"measurement": "S. typhimurium colonies per gram of feed", "setting": "Salmonella typhimurium", "result": "2.94 × 10^2 COLONIES/GRAM"}, {"measurement": "resistance to contamination (time)", "setting": "E. coli; 2 lbs. dry wt. of formaldehyde/ton, 2.0% CV", "result": "about 60 days"}, {"measurement": "resistance to contamination (time)", "setting": "E. coli; 4 lbs. dry wt. of formaldehyde per ton of finished feed, 7% CV", "result": "about 30 days"}]}]}
